Test results: ChEMBL document CHEMBL3045345, “Computer simulation of the in vitro and in vivo anti-inflammatory activities of dihydropyrimidines acid derivatives through the inhibition of cyclooxygenase-2” (Med Chem Res, 2013)
pIC50: −log10 of the molar value. Calls of active or inactive are those of the source. No cut-off for these calls is given here.

How the values were obtained:
Rattus norvegicus [1] = assay: Anti-inflammatory activity in Rattus norvegicus (rat) assessed as inhibition of carrageenan-induced paw edema at 100 mg/kg, po treated 60 min prior to carrageenan injection measured after 1 to 5 hr; format: functional
[2] = molecular target: T1, Prostaglandin G/H synthase 1 (Ovis aries, UniProt P05979); assay: Inhibition of Ovis aries (sheep) COX-1 assessed as decrease in PGF2a production from PGH2 upon reduction with stannous chloride using arachidonic acid as substrate pre-incubated with enzyme for 5 min prior to substrate addition by enzyme immunoassay
T1 sequence (P05979 whole entry): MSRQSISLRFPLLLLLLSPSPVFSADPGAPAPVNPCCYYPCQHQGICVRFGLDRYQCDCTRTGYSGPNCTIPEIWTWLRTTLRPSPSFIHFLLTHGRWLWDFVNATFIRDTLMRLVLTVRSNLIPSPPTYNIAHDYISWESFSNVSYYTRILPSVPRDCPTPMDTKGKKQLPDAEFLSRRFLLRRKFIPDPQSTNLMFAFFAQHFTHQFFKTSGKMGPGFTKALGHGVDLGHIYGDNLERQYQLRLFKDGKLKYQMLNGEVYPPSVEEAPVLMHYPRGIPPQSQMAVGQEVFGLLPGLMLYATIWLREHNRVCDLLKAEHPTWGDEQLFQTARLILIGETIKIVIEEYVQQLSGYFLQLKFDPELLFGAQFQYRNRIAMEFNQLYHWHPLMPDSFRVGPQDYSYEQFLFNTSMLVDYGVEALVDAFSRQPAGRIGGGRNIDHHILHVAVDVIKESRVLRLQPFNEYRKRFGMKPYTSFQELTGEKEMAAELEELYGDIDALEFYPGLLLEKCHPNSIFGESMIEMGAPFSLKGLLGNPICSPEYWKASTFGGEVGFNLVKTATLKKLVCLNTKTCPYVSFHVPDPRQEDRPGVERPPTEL

Rattus norvegicus [3] = assay: Anti-inflammatory activity in Rattus norvegicus (rat) assessed as inhibition of carrageenan-induced paw edema at 100 mg/kg, po treated 60 min prior to carrageenan injection measured after 1 to 5 hr relative to ibuprofen; format: functional

Row | Compound | inhibition in vivo at 100 mg/kg (Rattus norvegicus [1]) | pIC50 [2] | inhibition in vivo at 100 mg/kg (Rattus norvegicus [3]) | inhibition (Rattus norvegicus [1])
1 | COc1ccc(/C=C/C2=C(C(=O)O)C(c3ccc(OC)cc3)NC(=S)N2)cc1 (centres undefined) | 38% | 4.84 | 38% | 
2 | O=C(O)C1=C(/C=C/c2ccc(O)cc2)NC(=S)NC1c1ccc(O)cc1 (centres undefined) |  |  |  | inactive
3 | O=C1NC(/C=C/c2ccc(O)cc2)=C(C(=O)O)C(c2ccc(O)cc2)N1 (centres undefined) | 12% |  |  | 
4 | CN(C)c1ccc(/C=C/C2=C(C(=O)O)C(c3ccc(N(C)C)cc3)NC(=S)N2)cc1 (centres undefined) |  |  |  | inactive
5 | COc1ccc(/C=C/C2=C(C(=O)O)C(c3ccc(OC)cc3)NC(=O)N2)cc1 (centres undefined) | 23% | 4.83 | 41% | 
6 | O=C(O)C1=C(/C=C/c2ccccc2)NC(=S)NC1c1ccccc1 (centres undefined) |  |  |  | inactive
7 | O=C1NC(/C=C/c2ccccc2)=C(C(=O)O)C(c2ccccc2)N1 (centres undefined) | 16% |  |  | 
8 | CN(C)c1ccc(/C=C/C2=C(C(=O)O)C(c3ccc(N(C)C)cc3)NC(=O)N2)cc1 (centres undefined) |  |  |  | inactive
9 | O=C1NC(/C=C/c2ccc([N+](=O)[O-])cc2)=C(C(=O)O)C(c2ccc([N+](=O)[O-])cc2)N1 (centres undefined) |  |  |  | inactive
10 | CC(C)Cc1ccc(C(C)C(=O)O)cc1 (centres undefined) [IBUPROFEN] | 56% |  |  | 
